# Data taken from US20160095923A1, “ORAL COMPOSITION COMPRISNG (+)-CATECHIN” (VALORE, priority 2013, published 2016).
# How the values were obtained:
# [1] = Bioavailability after oral administration or intravenous injection in Wistar rats (free/total polyphenol in plasma, LC-MS/MS)
# Description: (§1) The experimental results described below were obtained on the basis of a study carried out in healthy human beings and in healthy Wistar rats weighing approximately 250 grams.
# An acclimation period was observed before beginning the experiments.
# The rats received an administration per os of a volume of 5 ml of a solution of active product.
# (§2) With regard to taking the blood samples from the rats and from the human beings, the blood was collected in tubes internally coated with EDTA and was then centrifuged at 3000 rpm (revolutions per minute) at ambient temperature for 45 min, and then for 15 min at a temperature of 4° C. The plasma was then collected and stored at −70° C. before analysis.
# (§3) The analytical technique (LC-MS/MS for Liquid Chromatography coupled to tandem Mass Spectrometry) for measuring the active substance in the blood was based on the method described by Mata-Bilbao et al., published in 2007 in the Journal of Agricultural and Food Chemistry, volume 55, page 8857.
# (§4) The free (+)-catechin was extracted from the plasma with a solution of phosphoric acid, EDTA and ascorbic acid and was then purified by SPE (solid phase extraction); in particular, it is an Oasis™ HLB extraction which is analyzed by LC-MS/MS. The quantification was carried out according to a standard calibration procedure with (+/−)-catechin-2,3,4-^13C3 as internal standard (SI).
# The procedure is identical with regard to the extraction and the quantification of free quercetin or ECGC in the blood.
# With regard to the extraction and quantification of the total (+)-catechin, the procedure is the same as that applied to the free (+)-catechin, with the exception of the fact that an additional step prior to the purification by SPE is carried out.
# Each of the mixtures is then solubilized in water.
# Each of the mixtures is solubilized in water.
# [2] = tested on: rat skin; experiment: Total incorporation and incorporation into collagen of 3H-proline in the skin; type: in vivo, Wistar rats; settings: 100 mg/kg by gavage for 5 days; for level of incorporation into collagen (IC) of 3H-hydroxyproline in rat skin / level of total incorporation (IT) of 3H-hydroxyproline in rat skin: treated subgroup
# Description: To do this, a study was carried out in vivo on a batch of 24 female Wistar rats weighing from 95 to 115 g, divided into two groups C and D, each of 12 rats. For each group, the radioactive 3H-hydroxyproline, the specific activity of which is 13.6 Ci/10^−3 mol, was administered to all the animals by intraperitoneal injection of proline-L-(5-3H) at a dose, relative to the weight of the individuals, of 1 mCi/kg, which represents an activity in terms of radioactive 3H-proline of 100 μCi/individual.
# 6 rats of each group received a treatment based on monomeric (+)-catechin by gavage in a proportion of 100 mg/kg for 5 days before sacrifice. […] The group C received monomeric (+)-catechin hydrochlorolysinate, while the group D received monomeric (+)-catechin ascorbolysinate.
# In table 8, the level of incorporation is measured by the number of disintegrations of the radioactive 3H-hydroxyproline per minute (dpm) per mg of dry weight. The higher this number, the higher the concentration of 3H-hydroxyproline.
# In this comparative example, a group E of 12 Wistar rats weighing from 95 to 115 g, in which radioactive 3H-hydroxyproline, the specific activity of which is 13.6 Ci/10^−3 mol, was administered to all the individuals by intraperitoneal injection of proline-L-(5-3H) at a dose, relative to the weight of the individuals, of 1 mCi/kg, which represents an activity in terms of radioactive 3H-proline of 100 ρCi/individual.
# 6 rats of each group received a treatment based on pure monomeric (+)-catechin by gavage in a proportion of 100 mg/kg for 5 days before sacrifice.
# In table 9, the level of incorporation is measured by the number of disintegrations of the radioactive 3H-hydroxyproline per minute (dpm) per mg of dry weight. The higher this number, the higher the concentration of 3H-hydroxyproline.
# [3] = Bioavailability after oral administration in human beings (free monomeric (+)-catechin in plasma, LC-MS/MS); settings: in vivo, po
# Description: as §1, §2, §3, §4
# This complex salt is administered to a group A of 5 healthy volunteers.
# This ct parameter makes it possible to calculate, from the data of table 1, the bioavailability of the (+)-catechin expressed in ng h/ml.
# [4] = tested on: gastric ulcers in Mastomys; experiment: Incidence of gastric ulcers and histamine level in the gastric mucosa in ovalbumin-sensitized Mastomys; type: in vivo; settings: for histamine level (HL) in the gastric mucosa / number of animals exhibiting a gastric ulcer (NU): n = 12
# Description: Mastomys in fact has a special system of cells which store histamine in the gastric mucosa; these cells can give rise to carcinoid tumors.
# In this example, a sample of n=48 Mastomys are sensitized a first time by intraperitoneal injection of 3 μg of ovalbumin dissolved in 0.2 ml of saline solution containing 1 mg of aluminum hydroxide the ovalbumin which brings about anti-immunoglobulin E(IgE) and G(IgG) antibodies. After 7 days, a second injection of 1 mg of ovalbumin in 0.01 ml of saline solution is given in the gastric mucosa at the level of the corpus of the anesthetized animals, which causes an ulcerated lesion at the actual site of the injection.
# The 48 rats are divided up into three groups: one of 24 and two of 12 individuals. The first group of 24 individuals (G1) received a placebo (concentrated NaCl solution at 0.15 M).
# The histamine level is measured for the G1, G2 and G3 groups on the basis of a sample of n=12 individuals.
# [5] = tested on: cancer patients (lymphoplasmocytic lymphoma; clear cell renal carcinoma); experiment: Treatment of patients suffering from cancer with 500 mg [C:Lys:HCl] complex salt tablet per day; type: in vivo, human; settings: for IgM level in the blood: lymphoplasmocytic lymphoma, 500 mg/day
# Description: In the first patient a lymphoplasmocytic lymphoma (of Waldenström macroglobulinemia type) was detected during a post-operative blood test on day D0. The diagnosis is based on the electrophoretic detection of a monoclonal peak of immunoglobulins (IgM). This diagnosis was reconfirmed and the peak was assayed during a second analysis using the same detection by electrophoresis.
# These immunoglobulins are found at a high concentration in the blood and in the urine. They therefore constitute real tumor markers. The assaying thereof gives an account of the number of sick cells and the extent of the disease and, consequently, makes it possible to monitor its progression under treatment.
# Successive blood tests gave the following data for the IgM assay (in mg per 100 ml of plasma):
# In the second patient, a left subclavicular cervical adenopathy was first of all detected on day D0. Next, 2 weeks later, a left renal adenocarcinoma was detected for this patient, which was followed by a nephrectomy of the left kidney 3 days after the detection of the adenocarcinoma in this kidney.
# Thereafter, on day D0+3 months, a left cervical lymph node dissection is performed on the patient. This procedure was followed by a series of 15 radiotherapy sessions.
# Starting from day D0+15 months (that is to say on day DT), the patient was orally administered a tablet of 500 mg of (+)-catechin hydrochlorolysinate per day.
# [6] = free catechin, per os, dose equivalent to 100 mg/kg catechin, 5 rats
# [7] = oral administration versus placebo
compound,measurement,setting,value
Cl.Cl.Cl.NCCCCC(N)C(=O)O.NCCCCC(N)C(=O)O.NCCCCC(N)C(=O)O.Oc1cc(O)c2c(c1)O[C@H](c1ccc(O)c(O)c1)[C@@H](O)C2 [1:3:3],"ct, calculated value","[1]; rat, in vivo, 25 mg/kg",38 k ng min/ml
Cl.Cl.Cl.Cl.Cl.NCCCCC(N)C(=O)O.NCCCCC(N)C(=O)O.NCCCCC(N)C(=O)O.NCCCCC(N)C(=O)O.NCCCCC(N)C(=O)O.Oc1cc(O)c2c(c1)O[C@H](c1ccc(O)c(O)c1)[C@@H](O)C2 [1:5:5],"ct, calculated value","[1]; rat, in vivo, 25 mg/kg",26 k ng min/ml
"O=c1c(O)c(-c2ccc(O)c(O)c2)oc2cc(O)cc(O)c12 [QP, quercetin, reference compound]",Δct^q (difference of ct to QP),"[1]; Wistar, rat, in vivo, 25 mg/kg",0%
"NCCCCC(N)C(=O)O.NCCCCC(N)C(=O)O.Oc1cc(O)c2c(c1)O[C@H](c1ccc(O)c(O)c1)[C@@H](O)C2 [[C:Lys/1:2], Complex of Monomeric (+)-Catechin and of Lysine in a Molar Equivalence Ratio of 1:2]",T (max),[1]; [6],2 h
same,Δct (difference of ct to CP),"[1]; free catechin, per os, equivalent to 25 mg/kg (comparative example 4)",+17%
same,T (max),"[1]; free catechin, per os, equivalent to 25 mg/kg, 3 rats (comparative example 4)",1 h
same,Δct (difference of ct to CP),"[1]; total (+)-catechin, per os, equivalent to 25 mg/kg",+24%
same,T (max),"[1]; total (+)-catechin, per os, equivalent to 25 mg/kg, 3 rats",1 h
"Cl.Cl.NCCCCC(N)C(=O)O.NCCCCC(N)C(=O)O.O=c1c(O)c(-c2ccc(O)c(O)c2)oc2cc(O)cc(O)c12 [[Q:Lys:HCl/1:2:2], reference compound]",Δct^q (difference of ct to QP),"[1]; rat, in vivo, 25 mg/kg",+18%
"N=C(N)NCCCC(N)C(=O)O.Oc1cc(O)c2c(c1)O[C@H](c1ccc(O)c(O)c1)[C@@H](O)C2 [[C:Arg/1:1], Complex of Monomeric (+)-Catechin and of Arginine in a Molar Equivalence Ratio of 1:1]",Δct (difference of ct to CP),"[1]; free catechin, per os, dose equivalent to 100 mg/kg catechin",+21%
same,T (max),[1]; [6],1 h
Cl.Cl.NCCCCC(N)C(=O)O.NCCCCC(N)C(=O)O.Oc1cc(O)c2c(c1)O[C@H](c1ccc(O)c(O)c1)[C@@H](O)C2 [[C:Lys:HCl/1:2:2]],total plasma concentration (ct) of free monomeric (+)-catechin,"[1]; rat, in vivo, iv, 25 mg/kg",87 970 ng min/ml
same,total plasma concentration (ct) of total monomeric (+)-catechin,"[1]; rat, in vivo, iv, 25 mg/kg",277 040 ng min/ml
same,total plasma concentration (ct) of total monomeric (+)-catechin,"[1]; rat, in vivo, po, 25 mg/kg",479 585 ng min/ml
monomeric (+)-catechin ascorbolysinate,increase in the level of incorporation versus control,[2],+14%
same,level of incorporation into collagen (IC) of 3H-hydroxyproline in rat skin,[2],1117 ± 49 dpm/mg
same,level of total incorporation (IT) of 3H-hydroxyproline in rat skin,[2],5112 ± 259 dpm/mg
"O=C(O[C@@H]1Cc2c(O)cc(O)cc2O[C@@H]1c1cc(O)c(O)c(O)c1)c1cc(O)c(O)c(O)c1 [pure EGCG, epigallocatechin gallate, reference compound]",plasma levels measured (below reliable limits of detection),"[1]; free EGCG, per os, equivalent to 25 mg/kg polyphenol",below 250 ng/ml
"NCCCCC(N)C(=O)O.Oc1cc(O)c2c(c1)O[C@H](c1ccc(O)c(O)c1)[C@@H](O)C2 [[C:Lys/1:1], Complex of Monomeric (+)-Catechin and of Lysine in a Molar Equivalence Ratio of 1:1]",T (max),[1]; [6],1 h
Cl.NCCCCC(N)C(=O)O.Oc1cc(O)c2c(c1)O[C@H](c1ccc(O)c(O)c1)[C@@H](O)C2 [monomeric (+)-catechin hydrochlorolysinate],T (max),[3],0.5 h
same,increase in c (max) compared with pure monomeric (+)-catechin,[3],+103%
same,"increase in speed of passage into blood, T (max), compared with pure monomeric (+)-catechin",[3],+166%
same,"ct, reported value on the curve in FIG. 5","[1]; rat, in vivo, 25 mg/kg",127 k ng min/ml
same,increase in the level of incorporation versus control,[2],+15%
same,level of incorporation into collagen (IC) of 3H-hydroxyproline in rat skin,[2],1343 ± 48 dpm/mg
same,level of total incorporation (IT) of 3H-hydroxyproline in rat skin,[2],6248 ± 124 dpm/mg
same,histamine level (HL) in the gastric mucosa,"[4]; G2, per os 2×300 mg a day",37.91 ± 3.73 10^−6 mg/kg of protein
same,number of animals exhibiting a gastric ulcer (NU),"[4]; G2, per os 2×300 mg a day",5
same,histamine level (HL) in the gastric mucosa,"[4]; G3, intraperitoneally 100 mg",34.98 ± 3.52 10^−6 mg/kg of protein
same,number of animals exhibiting a gastric ulcer (NU),"[4]; G3, intraperitoneally 100 mg",6
same,decrease in the histamine level in the gastric mucosa,[4]; [7],−18%
same,decrease in the number of animals exhibiting a gastric ulcer,[4]; [7],−72%
same,IgM level in the blood,"[5]; first patient, DT + 4 months",2417 mg/100 ml
same,IgM level in the blood,"[5]; first patient, DT + 9 months",2410 mg/100 ml
same,IgM level in the blood,"[5]; first patient, DT + 15 months",2412 mg/100 ml
same,clinical course of IgM level under treatment,"[5]; first patient, taken for a year and a half",stabilization below the maximum detected on day DT
same,clinical outcome,"[5]; second patient, clear cell renal carcinoma, 500 mg/day from DT",stabilized the patient's condition
Cl.Cl.Cl.Cl.Cl.NCCCCC(N)C(=O)O.NCCCCC(N)C(=O)O.NCCCCC(N)C(=O)O.NCCCCC(N)C(=O)O.NCCCCC(N)C(=O)O.Oc1cc(O)c2c(c1)O[C@H](c1ccc(O)c(O)c1)[C@@H](O)C2.Oc1cc(O)c2c(c1)O[C@H](c1ccc(O)c(O)c1)[C@@H](O)C2 [1:2.5:2.5],"ct, reported value on the curve in FIG. 5","[1]; rat, in vivo, 25 mg/kg",105 k ng min/ml
Cl.Cl.Cl.NCCCCC(N)C(=O)O.NCCCCC(N)C(=O)O.NCCCCC(N)C(=O)O.Oc1cc(O)c2c(c1)O[C@H](c1ccc(O)c(O)c1)[C@@H](O)C2.Oc1cc(O)c2c(c1)O[C@H](c1ccc(O)c(O)c1)[C@@H](O)C2 [C:Lys:HCl/1:1.5:1.5],"ct, reported value on the curve in FIG. 5","[1]; rat, in vivo, 25 mg/kg",142 k ng min/ml
